Results: patent US20240033234A1, “THERAPEUTIC COMPOUNDS, FORMULATIONS, AND USE THEREOF” (Tvardi Therapeutics, Inc., priority 2022, published 2024)
“And” between values parts separate entries of the source, which are not always exact repeats. Equal entries are not always repeated.

Experiment: Accelerated and long term stability study of TTI-101 (Batch A, Batch B): HPLC assay, purity, impurities and water content after storage at 5° C., 25° C./60% RH, 30° C./65% RH or 40° C./75% RH
Format: physicochemical
Conditions: for Impurities RRT 0.99: RRT of compound of formula (IV); for Impurities RRT 1.06: RRT of Compound 4
Procedure: Exemplary HPLC conditions: diluent was 0.1% trifluoroacetic acid (TFA) in acetonitrile, Mobile Phase A was 0.05% TFA in water, and Mobile Phase B was 0.05% TFA in acetonitrile, column (Agilent, Eclipse XDB-C18, 3.0×100 mm, particle size 1.8 μm), flow (0.425 mL/min), and detector (280 nm diode array).
Batch A was prepared analogously using Method 3 as described in Example 1. Batch B was prepared according to Method 5 as described in Example 1.
Samples of TTI-101 were stored at 5° C., 25° C./60% RH, 30° C./65% RH, or 40° C./75% RH. TTI-101 was stored in an LDPE bag enclosed with a Nylon cable tie and then transferred to another LDPE bag and enclosed with a Nylon cable tie. The enclosure was put into an HDPE bottle and closed with a polyethylene-lined polypropylene cap. The samples were stored under the above-identified conditions.
The samples were analyzed using HPLC with the exemplary conditions identified above. Relative retention time (RRT) for Compound 5 was about 0.83, Compound 4 was about 1.05-1.06, Compound 6 was about 1.15-1.17, and compound of formula (IV) was about 0.99.
• NA not applicable • NQ ≥0.02% and <0.05% • Avg average • Cmpd compound • — no peak • M month • RRT relative retention time

[1] = 5° C., 0 M, P1/P2, listed as Batch A
[2] = 5° C., 2 M, P1/P2, listed as Batch A
[3] = 5° C., 3 M, P1/P2, listed as Batch A
[4] = 5° C., 12 M, P1/P2, listed as Batch A
[5] = 25° C./60% RH, 0 M, P1/P2, listed as Batch A
[6] = 25° C./60% RH, 2 M, P1/P2, listed as Batch A

Assay (%) (5° C., 0 M, Avg): 99.8%
Impurities RRT 1.06 (Cmpd 4) (5° C., 0 M, Avg): NQ (≥0.02% and <0.05%)
Impurities RRT 1.17 (Cmpd 6) (5° C., 0 M, Avg): 0.13 area %
Impurities RRT 1.32 (5° C., 0 M, Avg): NQ (≥0.02% and <0.05%)
Impurities Total (5° C., 0 M, Avg): 0.1 area %
Purity (%) (5° C., 0 M, Avg): 99.8%
Water Content (%) (5° C., 0 M, Avg): <0.04%
Impurities RRT 0.99 (5° C., 0 M, Avg): NQ (≥0.02% and <0.05%)
Impurities RRT 1.32 (5° C., 0 M, P1/P2): NQ (≥0.02% and <0.05%)
Impurities Total (5° C., 0 M, P1/P2): 0.1 area %
Purity (%) (5° C., 0 M, P1/P2): 99.8%
Water Content (%) (5° C., 0 M, P1/P2): <0.04%
Assay (%) [1]: 99.9% and 99.7%
Impurities RRT 1.17 (Cmpd 6) [1]: 0.13 area % and 0.12 area %
Assay (%) (5° C., 2 M, Avg): 100.2%
Impurities RRT 1.16 (Cmpd 6) (5° C., 2 M, Avg): 0.08 area %
Impurities Total (5° C., 2 M, Avg): 0.1 area %
Purity (%) (5° C., 2 M, Avg): 99.9%
Water Content (%) (5° C., 2 M, Avg): <0.04%
Impurities RRT 0.99 (5° C., 2 M, Avg): NQ (≥0.02% and <0.05%)
Water Content (%) (5° C., 2 M, P1/P2): <0.04%
Assay (%) [2]: 99.7% and 100.7%
Purity (%) [2]: 99.9% and 100.0%
Assay (%) (5° C., 3 M, Avg): 99.9%
Impurities RRT 1.06 (Cmpd 4) (5° C., 3 M, Avg): 0.07 area %
Impurities RRT 1.16 (Cmpd 6) (5° C., 3 M, Avg): 0.22 area %
Impurities Total (5° C., 3 M, Avg): 0.3 area %
Purity (%) (5° C., 3 M, Avg): 99.7%
Water Content (%) (5° C., 3 M, Avg): <0.04%
Impurities RRT 1.16 (Cmpd 6) (5° C., 3 M, P1/P2): 0.22 area %
Impurities Total (5° C., 3 M, P1/P2): 0.3 area %
Purity (%) (5° C., 3 M, P1/P2): 99.7%
Water Content (%) (5° C., 3 M, P1/P2): <0.04%
Assay (%) [3]: 100.2% and 99.5%
Impurities RRT 1.06 (Cmpd 4) [3]: 0.06 area % and 0.07 area %
Assay (%) (5° C., 6 M, Avg): 99.4%
Impurities RRT 1.15 (Cmpd 6) (5° C., 6 M, Avg): 0.13 area %
Impurities Total (5° C., 6 M, Avg): 0.1 area %
Purity (%) (5° C., 6 M, Avg): 99.9%
Water Content (%) (5° C., 6 M, Avg): <0.04%
Impurities RRT 1.15 (Cmpd 6) (5° C., 6 M, P1/P2): 0.13 area %
Impurities Total (5° C., 6 M, P1/P2): 0.1 area %
Purity (%) (5° C., 6 M, P1/P2): 99.9%
Water Content (%) (5° C., 6 M, P1/P2): <0.04%
Assay (%) (5° C., 6 M, P1/P2, listed as Batch A): 100.6% and 98.3%
Assay (%) (5° C., 9 M, Avg): 99.6%
Impurities RRT 1.16 (Cmpd 6) (5° C., 9 M, Avg): 0.12 area %
Impurities Total (5° C., 9 M, Avg): 0.1 area %
Purity (%) (5° C., 9 M, Avg): 99.9%
Water Content (%) (5° C., 9 M, Avg): <0.04%
Assay (%) (5° C., 9 M, P1/P2): 99.6%
Impurities Total (5° C., 9 M, P1/P2): 0.1 area %
Purity (%) (5° C., 9 M, P1/P2): 99.9%
Water Content (%) (5° C., 9 M, P1/P2): <0.04%
Impurities RRT 1.16 (Cmpd 6) (5° C., 9 M, P1/P2, listed as Batch A): 0.12 area % and 0.11 area %
Assay (%) (5° C., 12 M, Avg): 99.2%
Impurities RRT 1.06 (Cmpd 4) (5° C., 12 M, Avg): NQ (≥0.02% and <0.05%)
Impurities RRT 1.16 (Cmpd 6) (5° C., 12 M, Avg): 0.39 area %
Impurities Total (5° C., 12 M, Avg): 0.4 area %
Purity (%) (5° C., 12 M, Avg): 99.6%
Water Content (%) (5° C., 12 M, Avg): 0.04%
Impurities RRT 1.06 (Cmpd 4) (5° C., 12 M, P1/P2): NQ (≥0.02% and <0.05%)
Impurities RRT 1.16 (Cmpd 6) (5° C., 12 M, P1/P2): 0.39 area %
Impurities Total (5° C., 12 M, P1/P2): 0.4 area %
Purity (%) (5° C., 12 M, P1/P2): 99.6%
Assay (%) [4]: 99.1% and 99.2%
Water Content (%) [4]: <0.04% and 0.04%
Assay (%) (5° C., 18 M, Avg): 98.5%
Impurities RRT 1.15 (Cmpd 6) (5° C., 18 M, Avg): 0.10 area %
Impurities Total (5° C., 18 M, Avg): 0.1 area %
Purity (%) (5° C., 18 M, Avg): 99.9%
Water Content (%) (5° C., 18 M, Avg): <0.04%
Impurities RRT 1.15 (Cmpd 6) (5° C., 18 M, P1/P2): 0.10 area %
Impurities Total (5° C., 18 M, P1/P2): 0.1 area %
Purity (%) (5° C., 18 M, P1/P2): 99.9%
Water Content (%) (5° C., 18 M, P1/P2): <0.04%
Impurities RRT 1.06 (5° C., 18 M, P1/P2): NQ (≥0.02% and <0.05%)
Assay (%) (5° C., 18 M, P1/P2, listed as Batch A): 97.9% and 99.2%
Assay (%) (5° C., 24 M, Avg): 99.7%
Impurities RRT 1.16 (Cmpd 6) (5° C., 24 M, Avg): 0.11 area %
Impurities Total (5° C., 24 M, Avg): 0.1 area %
Purity (%) (5° C., 24 M, Avg): 99.9%
Water Content (%) (5° C., 24 M, Avg): <0.04%
Impurities RRT 1.16 (Cmpd 6) (5° C., 24 M, P1/P2): 0.11 area %
Impurities Total (5° C., 24 M, P1/P2): 0.1 area %
Purity (%) (5° C., 24 M, P1/P2): 99.9%
Water Content (%) (5° C., 24 M, P1/P2): <0.04%
Impurities RRT 1.06 (5° C., 24 M, P1/P2): NQ (≥0.02% and <0.05%)
Assay (%) (5° C., 24 M, P1/P2, listed as Batch A): 100.2% and 99.3%
Assay (%) (25° C./60% RH, 0 M, Avg): 99.8%
Impurities RRT 1.06 (Cmpd 4) (25° C./60% RH, 0 M, Avg): NQ (≥0.02% and <0.05%)
Impurities RRT 1.17 (Cmpd 6) (25° C./60% RH, 0 M, Avg): 0.13 area %
Impurities RRT 1.32 (25° C./60% RH, 0 M, Avg): NQ (≥0.02% and <0.05%)
Impurities Total (25° C./60% RH, 0 M, Avg): 0.1 area %
Purity (%) (25° C./60% RH, 0 M, Avg): 99.8%
Water Content (%) (25° C./60% RH, 0 M, Avg): <0.04%
Impurities RRT 0.99 (25° C./60% RH, 0 M, Avg): NQ (≥0.02% and <0.05%)
Impurities RRT 1.32 (25° C./60% RH, 0 M, P1/P2): NQ (≥0.02% and <0.05%)
Impurities Total (25° C./60% RH, 0 M, P1/P2): 0.1 area %
Purity (%) (25° C./60% RH, 0 M, P1/P2): 99.8%
Water Content (%) (25° C./60% RH, 0 M, P1/P2): <0.04%
Assay (%) [5]: 99.9% and 99.7%
Impurities RRT 1.17 (Cmpd 6) [5]: 0.13 area % and 0.12 area %
Assay (%) (25° C./60% RH, 2 M, Avg): 99.1%
Impurities RRT 0.71 (25° C./60% RH, 2 M, Avg): 0.08 area %
Impurities RRT 0.92 (25° C./60% RH, 2 M, Avg): NQ (≥0.02% and <0.05%)
Impurities RRT 1.16 (Cmpd 6) (25° C./60% RH, 2 M, Avg): 0.05 area %
Impurities RRT 1.29 (25° C./60% RH, 2 M, Avg): NQ (≥0.02% and <0.05%)
Impurities Total (25° C./60% RH, 2 M, Avg): 0.1 area %
Purity (%) (25° C./60% RH, 2 M, Avg): 99.9%
Water Content (%) (25° C./60% RH, 2 M, Avg): <0.04%
Water Content (%) (25° C./60% RH, 2 M, P1/P2): <0.04%
Assay (%) [6]: 98.9% and 99.3%
Impurities Total [6]: 0.05 area % and 0.1 area %
Purity (%) [6]: 99.9% and 99.8%
Assay (%) (25° C./60% RH, 3 M, Avg): 99.5%
Impurities RRT 1.06 (Cmpd 4) (25° C./60% RH, 3 M, Avg): 0.07 area %
Impurities RRT 1.16 (Cmpd 6) (25° C./60% RH, 3 M, Avg): 0.22 area %
Impurities Total (25° C./60% RH, 3 M, Avg): 0.3 area %
Purity (%) (25° C./60% RH, 3 M, Avg): 99.7%
Water Content (%) (25° C./60% RH, 3 M, Avg): <0.04%
Impurities RRT 1.06 (Cmpd 4) (25° C./60% RH, 3 M, P1/P2): 0.07 area %
Impurities RRT 1.16 (Cmpd 6) (25° C./60% RH, 3 M, P1/P2): 0.22 area %
Impurities Total (25° C./60% RH, 3 M, P1/P2): 0.3 area %
Structure (SMILES): COc1ccc(S(=O)(=O)Nc2cc(-c3c(O)ccc4ccccc34)c(O)c3ccccc23)cc1 [TTI-101]
